Measurements taken from patent US20140017336A1, “CO-ADMINISTRATION OF ARSENIC COMPOUNDS AND ANTI-HERPES VIRUS ANTI-VIRALS” (priority 2011, published 2014).

What was measured:
[1] = system: APL and non-APL cell lines; conditions: Konig et al., 1997; cited from earlier work
CNE1<EBV BX1> tumors = assay: CNE1<EBV BX1> nasopharyngeal carcinoma xenograft, tumor volume; type: in vivo, male nude mice; conditions: 21 days of once daily treatment; GCV 100 μg/g, ATO 100 ng/g; carrier control just under double
EBV Zta protein = type: in vivo, male nude mice; conditions: mouse, in vivo
LCL<EBV1-13> cells = type: cell-based, human
EBV Zta mRNA = type: cell-based, Epstein-Barr virus
[2] = system: uninfected parental A549 cells; conditions: 4 days, 10 nM ATO, 40 μM GCV
EBV BMRF1 mRNA = type: cell-based, Epstein-Barr virus; conditions: 10 nM ATO and/or 40 μM GCV
[3] = system: LMP1 dependent upregulation of PML NBs; assay: Transfection/inhibitor studies of LMP1 upregulation of PML NBs; type: cell-based
Experimental: A series of transfection/inhibitor studies were carried out to investigate the mechanism of upregulation of the PML-NB by LMP1. […] Either inhibition of ERK phosphorylation by U0126 or Stat3 dimerization by Stattic, however, prevented the LMP1 dependent upregulation of PML NBs.

[4] = system: nonmalignant blood mononuclear cells from normal donors; conditions: cited from earlier work

Nc1nc(N)nc(Nc2ccc([As]3SCC(CO)S3)cc2)n1 (centres unmarked) [Melarsoprol, melarsoprol]
activity against APL and non-APL cell lines [1]: at least equivalent to that of arsenic trioxide

Nc1nc2c(ncn2COC(CO)CO)c(=O)[nH]1 [GCV, 9-[[2-hydroxy-1-(hydroxymethyl)-ethoxy]methyl]guanine]
tumor size increase over size at day 7 (pre-treatment) (CNE1<EBV BX1> tumors): approximately 25% | Zta expression in tumor explant tissue (EBV Zta protein): Only the occasional Zta positive cell | viable cells after a third day of treatment compared with two days (LCL<EBV1-13> cells): did not result in reducing the number of viable cells | Zta mRNA expression over 7 days (EBV Zta mRNA): no effect | viability of uninfected parental cells [2]: did not affect the viability | BMRF1 mRNA expression over 7 days (EBV BMRF1 mRNA): no effect

N#CC(=C(/N)Sc1ccccc1N)/C(C#N)=C(\N)Sc1ccccc1N [U0126]
effect on LMP1 upregulation of PML NBs [3]: prevented

Cc1ccc(NCCCc2ccccc2)c(N)c1 [JSH23]
effect on LMP1 upregulation of PML NBs [3]: did not affect

C[As](C)SC[C@H](NC(=O)CC[C@H](N)C(=O)O)C(=O)NCC(=O)O [SGLU1, S-(dimethylarsino) glutathione]
toxicity against nonmalignant blood mononuclear cells [4]: low toxicity

O=[N+]([O-])c1ccc2c(c1)S(=O)(=O)C=C2 [Stattic]
effect on LMP1 upregulation of PML NBs [3]: prevented
